Activity calls are given as the source filed them.
Legend:
Protein Tat = target: T1, Protein Tat (Human immunodeficiency virus type 1 group M subtype B (isolate HXB2)(HIV-1), UniProt P04608); assay type: functional;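 also: tat binding to TAR RNA read out by fluorescence polarization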
T1 sequence (P04608 whole entry): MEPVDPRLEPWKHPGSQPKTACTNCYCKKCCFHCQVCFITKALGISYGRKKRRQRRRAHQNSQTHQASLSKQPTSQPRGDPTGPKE

[1] = target: T2, DNA repair protein RAD52 homolog (Homo sapiens, UniProt P43351); assay type: functional, biochemical
T2 sequence (P43351 whole entry): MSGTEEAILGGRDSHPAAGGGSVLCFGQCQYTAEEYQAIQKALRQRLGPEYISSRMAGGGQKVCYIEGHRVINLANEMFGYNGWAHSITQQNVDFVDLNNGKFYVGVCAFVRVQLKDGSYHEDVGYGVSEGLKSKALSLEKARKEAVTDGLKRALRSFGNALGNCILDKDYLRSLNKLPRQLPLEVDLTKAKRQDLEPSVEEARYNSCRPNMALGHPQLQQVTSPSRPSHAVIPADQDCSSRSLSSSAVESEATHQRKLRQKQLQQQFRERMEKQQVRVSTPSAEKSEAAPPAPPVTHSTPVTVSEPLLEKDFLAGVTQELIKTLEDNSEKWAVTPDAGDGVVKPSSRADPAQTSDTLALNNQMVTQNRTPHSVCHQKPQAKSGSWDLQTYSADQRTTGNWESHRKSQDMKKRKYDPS

[2] = target: T3, Rac GTPase-activating protein 1 (Homo sapiens, UniProt Q9H0H5); assay: MgcRacGAP GTPase-activating activity inhibitors, confirmation, biochemical, ADP Hunter fluorescence, primary and confirmatory (AID 624330); assay type: functional
T3 sequence (Q9H0H5 whole entry): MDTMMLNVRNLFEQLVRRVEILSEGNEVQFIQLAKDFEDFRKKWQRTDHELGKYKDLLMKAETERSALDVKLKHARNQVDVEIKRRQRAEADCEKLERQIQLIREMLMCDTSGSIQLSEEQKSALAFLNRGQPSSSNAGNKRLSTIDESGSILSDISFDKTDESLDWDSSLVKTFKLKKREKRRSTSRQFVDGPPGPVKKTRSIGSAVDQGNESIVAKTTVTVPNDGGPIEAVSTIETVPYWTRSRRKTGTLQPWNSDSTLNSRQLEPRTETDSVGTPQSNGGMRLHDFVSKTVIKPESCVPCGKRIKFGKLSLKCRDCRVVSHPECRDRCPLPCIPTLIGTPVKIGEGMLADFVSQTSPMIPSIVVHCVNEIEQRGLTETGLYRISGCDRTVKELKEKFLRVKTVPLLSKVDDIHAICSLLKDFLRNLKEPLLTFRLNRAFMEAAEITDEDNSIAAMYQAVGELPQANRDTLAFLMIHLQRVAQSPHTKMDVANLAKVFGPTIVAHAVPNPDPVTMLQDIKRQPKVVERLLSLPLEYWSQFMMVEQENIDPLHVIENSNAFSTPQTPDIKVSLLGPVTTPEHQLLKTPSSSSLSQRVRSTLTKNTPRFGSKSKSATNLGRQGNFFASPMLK

[3] = HeLa cell cytotoxicity, dose response, cytotoxicity control for MgcRacGAP inhibitor project (AID 624300); assay type: functional
cells [4] = assay type: functional, cell-based
[5] = target: T4, Histone-lysine N-methyltransferase NSD2 (Homo sapiens, UniProt O96028); assay type: biochemical
T4 sequence (O96028 whole entry): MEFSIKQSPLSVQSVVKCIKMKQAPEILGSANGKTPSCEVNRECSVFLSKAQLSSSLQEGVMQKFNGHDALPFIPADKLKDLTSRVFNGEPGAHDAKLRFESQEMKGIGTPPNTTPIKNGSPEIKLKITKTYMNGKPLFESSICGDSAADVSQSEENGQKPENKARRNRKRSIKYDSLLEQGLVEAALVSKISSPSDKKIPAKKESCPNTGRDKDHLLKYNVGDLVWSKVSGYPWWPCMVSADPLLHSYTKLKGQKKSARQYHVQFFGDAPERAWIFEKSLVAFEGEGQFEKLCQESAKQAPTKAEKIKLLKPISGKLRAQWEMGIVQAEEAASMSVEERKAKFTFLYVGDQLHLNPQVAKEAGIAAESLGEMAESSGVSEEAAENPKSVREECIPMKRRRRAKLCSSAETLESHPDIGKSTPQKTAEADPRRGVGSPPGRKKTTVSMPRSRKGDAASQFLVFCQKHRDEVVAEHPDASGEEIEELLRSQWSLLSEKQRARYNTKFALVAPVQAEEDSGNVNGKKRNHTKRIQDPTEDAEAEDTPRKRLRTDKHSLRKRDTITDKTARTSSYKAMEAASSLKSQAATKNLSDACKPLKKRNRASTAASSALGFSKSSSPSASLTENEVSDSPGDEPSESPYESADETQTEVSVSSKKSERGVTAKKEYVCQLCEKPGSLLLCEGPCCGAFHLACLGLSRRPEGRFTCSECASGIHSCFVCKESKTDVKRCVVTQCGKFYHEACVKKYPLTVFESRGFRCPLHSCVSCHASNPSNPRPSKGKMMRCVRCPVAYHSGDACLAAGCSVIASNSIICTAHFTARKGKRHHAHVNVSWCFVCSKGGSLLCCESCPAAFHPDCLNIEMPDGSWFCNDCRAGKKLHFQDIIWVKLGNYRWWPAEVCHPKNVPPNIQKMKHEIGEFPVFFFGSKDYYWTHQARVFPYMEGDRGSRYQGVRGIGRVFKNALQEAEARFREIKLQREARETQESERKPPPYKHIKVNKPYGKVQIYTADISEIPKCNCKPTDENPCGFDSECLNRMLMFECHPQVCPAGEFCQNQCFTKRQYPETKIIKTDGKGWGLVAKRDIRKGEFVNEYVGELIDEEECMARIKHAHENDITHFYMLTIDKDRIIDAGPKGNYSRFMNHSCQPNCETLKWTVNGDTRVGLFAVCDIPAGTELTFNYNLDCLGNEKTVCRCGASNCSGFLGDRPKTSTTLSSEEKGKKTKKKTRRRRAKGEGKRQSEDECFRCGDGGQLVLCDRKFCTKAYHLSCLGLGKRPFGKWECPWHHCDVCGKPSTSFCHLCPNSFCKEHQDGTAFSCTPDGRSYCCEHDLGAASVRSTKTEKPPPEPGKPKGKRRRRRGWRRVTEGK

[6] = target: T5, RNA-binding protein pos-1 (Caenorhabditis elegans, UniProt G5EF15); assay: inhibitors of POS-1/mex-3 RNA binding, dose response, biochemical, fluorescence polarization (AID 1964);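 also: purified POS-1 fused to maltose binding protein made in E. coli; potency of compounds blocking POS-1 binding to fluorescent RNA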
T5 sequence (G5EF15 whole entry): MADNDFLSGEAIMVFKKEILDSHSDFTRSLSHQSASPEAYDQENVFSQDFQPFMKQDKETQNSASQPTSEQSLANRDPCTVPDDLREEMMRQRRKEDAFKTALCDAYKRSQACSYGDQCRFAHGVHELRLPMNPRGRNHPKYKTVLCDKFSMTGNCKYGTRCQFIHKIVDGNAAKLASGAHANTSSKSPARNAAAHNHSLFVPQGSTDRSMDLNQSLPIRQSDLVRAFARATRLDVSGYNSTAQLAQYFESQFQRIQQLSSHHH

cells [7] = assay type: functional, cell-based; remark: listed apart in the source
[8] = target: T6, Zinc finger protein mex-5 (Caenorhabditis elegans, UniProt Q9XUB2); assay: MEX-5/TCR-2 RNA interaction inhibitors, dose response, biochemical, C. elegans, fluorescence polarization (AID 1960)
T6 sequence (Q9XUB2 whole entry): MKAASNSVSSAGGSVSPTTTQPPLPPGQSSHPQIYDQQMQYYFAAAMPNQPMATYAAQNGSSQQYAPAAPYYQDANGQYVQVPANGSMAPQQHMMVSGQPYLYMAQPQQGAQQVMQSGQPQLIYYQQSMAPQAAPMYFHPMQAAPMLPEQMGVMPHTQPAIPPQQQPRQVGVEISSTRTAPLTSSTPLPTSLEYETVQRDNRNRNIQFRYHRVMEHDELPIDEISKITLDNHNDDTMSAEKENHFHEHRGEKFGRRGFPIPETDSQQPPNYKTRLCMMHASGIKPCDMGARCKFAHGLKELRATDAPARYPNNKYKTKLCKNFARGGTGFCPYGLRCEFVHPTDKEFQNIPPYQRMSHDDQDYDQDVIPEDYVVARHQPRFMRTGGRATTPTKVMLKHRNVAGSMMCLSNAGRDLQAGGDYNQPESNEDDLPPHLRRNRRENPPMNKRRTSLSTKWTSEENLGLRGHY

[9] = target: T7, Carboxy-terminal domain RNA polymerase II polypeptide A small phosphatase 1 (Homo sapiens, UniProt Q9GZU7); assay: inhibitors of CTDSP1, concentration-response testing, biochemical assay, absorbance-based, actives from ultra-high-throughput screening (AID 540297); assay type: functional
T7 sequence (Q9GZU7 whole entry): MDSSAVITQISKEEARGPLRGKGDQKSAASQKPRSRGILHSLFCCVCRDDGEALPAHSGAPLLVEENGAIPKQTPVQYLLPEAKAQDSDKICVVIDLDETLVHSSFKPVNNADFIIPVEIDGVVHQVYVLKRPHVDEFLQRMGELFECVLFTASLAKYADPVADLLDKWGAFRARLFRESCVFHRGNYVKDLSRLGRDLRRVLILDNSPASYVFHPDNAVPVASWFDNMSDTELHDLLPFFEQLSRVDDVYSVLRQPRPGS

[10] = cytotoxicity toward DRD oncogenic fibroblasts, dose response, cell-based, non-viral oncogenic, luminescence (AID 1934); assay type: functional; details: Homo sapiens
BJ [11] = assay: cytotoxicity toward BJ-TERT-LT-ST fibroblasts, dose response, cell-based, RAS-independent, luminescence (AID 1935); assay type: functional; details: Homo sapiens;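 also: BJ fibroblasts immortalized with TERT plus LT and ST oncogenes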
BJ [12] = assay: cytotoxicity toward BJ-TERT fibroblasts, dose response, cell-based, RAS-independent, luminescence (AID 1933); assay type: functional; details: Homo sapiens
BJ [13] = assay: cells; assay type: functional, cell-based; details: Homo sapiens
[14] = C. albicans growth with fluconazole, confirmation, fluorescence, retest (AID 2467); assay type: functional, cell-based
[15] = NIH-3T3 fibroblast cytotoxicity, dose response, cytotoxicity control, cell-based, fluorescence, Alamar Blue, secondary assay (AID 2327); assay type: functional;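 also: NIH-3T3 mouse fibroblasts cultured with fluconazole at 8 µg/mL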
[16] = target: T8, Heat shock factor protein 1 (Mus musculus, UniProt P38532); assay: HSF1 potentiators in luciferase reporter cells, confirmation, cell-based, NIH3T3, luminescence, dose retest (AID 435004); assay type: functional;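 also: stress induced by proteasome inhibitor MG132 added 30 min after compound; luciferase reporter driven by HSF1 response element in NIH3T3 cells; actives raise luminescence as potentiators of the MG132 stress response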
T8 sequence (P38532 whole entry): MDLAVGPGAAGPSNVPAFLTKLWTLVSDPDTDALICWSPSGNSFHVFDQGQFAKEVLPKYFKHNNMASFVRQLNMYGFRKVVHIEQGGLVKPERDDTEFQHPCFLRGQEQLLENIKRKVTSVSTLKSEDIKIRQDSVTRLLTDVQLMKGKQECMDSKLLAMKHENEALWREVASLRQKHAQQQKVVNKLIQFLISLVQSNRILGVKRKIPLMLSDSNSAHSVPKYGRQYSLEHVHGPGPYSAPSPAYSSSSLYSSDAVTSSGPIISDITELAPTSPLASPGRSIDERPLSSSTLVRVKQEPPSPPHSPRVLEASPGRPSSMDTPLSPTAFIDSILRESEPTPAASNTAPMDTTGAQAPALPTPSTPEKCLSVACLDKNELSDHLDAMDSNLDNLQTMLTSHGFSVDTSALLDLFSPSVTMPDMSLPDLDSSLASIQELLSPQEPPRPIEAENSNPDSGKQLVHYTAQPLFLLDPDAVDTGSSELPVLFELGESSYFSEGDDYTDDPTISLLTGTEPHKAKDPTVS

[17] = cytotoxicity in OVCAR8 ovarian cancer cells, dose response, PAX8 project, cell-based, plate reader, dry powder samples (AID 743197); assay type: functional; details: OVCAR-8
Paired box protein Pax-8 = Paired box protein Pax-8 (Homo sapiens, UniProt Q06710); assay: inhibitors of PAX8-driven TPO luciferase reporter, dose response, RMG-I cells, cherry-pick (AID 687027); assay type: functional, cell-based;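 also: luciferase reporter driven by Pax8 target thyroperoxidase promoter measured by SteadyGlo luminescence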
Sequence of Paired box protein Pax-8 (Q06710 whole entry): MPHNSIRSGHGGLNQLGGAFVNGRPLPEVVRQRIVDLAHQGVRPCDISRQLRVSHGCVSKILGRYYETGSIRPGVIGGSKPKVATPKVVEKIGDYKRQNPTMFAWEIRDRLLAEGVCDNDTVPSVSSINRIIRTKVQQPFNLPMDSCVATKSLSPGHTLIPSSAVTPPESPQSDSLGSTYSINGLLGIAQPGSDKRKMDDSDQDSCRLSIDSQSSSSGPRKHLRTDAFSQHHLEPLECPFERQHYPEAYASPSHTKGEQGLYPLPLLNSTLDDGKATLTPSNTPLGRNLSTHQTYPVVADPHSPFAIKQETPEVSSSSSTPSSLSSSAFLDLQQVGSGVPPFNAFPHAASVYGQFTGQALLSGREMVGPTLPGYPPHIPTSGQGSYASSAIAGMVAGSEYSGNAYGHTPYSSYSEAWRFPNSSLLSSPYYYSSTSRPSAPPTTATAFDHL

CCc1ccc2nc(N3CCN(C)CC3)c(C#N)cc2c1
IC50 (Protein Tat): > 100 µM (active)

O=C(C[n+]1ccc2ccccc2c1)c1ccc2ccc3ccccc3c2c1
AC50 [1]: 4.04 µM (active)

O=C(c1ccccc1F)N1CCN(Cc2ccccc2F)CC1
IC50 [2]: 182 µM (active) | CC50 [3]: 100 µM (active)

CCn1cc(C(=O)NN)c(=O)c2cc(F)c(N3CCN(C)CC3)cc21
AC50 [1]: 15.7 µM (active)

O=C(O)c1cccc(-n2cccc2/C=C2/SC(=O)N(CC(=O)N3CCCC3)C2=O)c1
EC50 (cells [4]): > 350 µM (not active) | AC50 [5]: > 20 µM (inactive) | EC50 [6]: > 300 µM (not active) | EC50 (cells [7]): > 350 µM (not active) | EC50 [8]: > 300 µM (not active) | IC50 [9]: 5.53 µM (active)

O=C1[C@@H]2C(Cc3ccc(O)cc3)NC3(C(=O)Nc4ccc(F)cc43)[C@@H]2C(=O)N1c1ccc(F)cc1 (stereo not given in full)
IC50 (Protein Tat): > 100 µM (active)

COc1ccc(N2CCc3c(C)nc4c(OC)cccc4c32)cc1
EC50 [10]: 2.68 µM (active) | EC50 (BJ [11]): 1.26 µM (inconclusive) | EC50 (BJ [12]): 3.48 µM (inconclusive) | EC50 (BJ [13]): 20 µM (inconclusive) | AC50 [1]: 12.3 µM (active)

CN1CCN(CC(=O)Nc2nc(-c3c[nH]c4ccccc34)cs2)CC1
AC50 [1]: 11.6 µM (active)

CCCCn1c(SCC(=O)c2ccc(O)c(O)c2)nc2ccsc2c1=O
EC50 [14]: > 38 µM (not active) | EC50 [15]: 12.9 µM (active) | EC50 [16]: 31.7 µM (active) | IC50 [2]: 49.7 µM (active) | CC50 [3]: 100 µM (active)

CCOC(=O)c1c(CNc2ccncc2)n(C)c2cc(Br)c(O)cc12
AC50 [1]: 15.6 µM (active)

C[C@H]1CCCCO[C@H](CN(C)C(=O)Nc2ccc(C(F)(F)F)cc2)[C@@H](C)CN([C@@H](C)CO)C(=O)c2cc(NS(=O)(=O)c3ccc(F)cc3)ccc2O1
AC50 [17]: > 70 µM (inactive) | AC50 (Paired box protein Pax-8): 4.63 µM (active)

C[C@@H]1CN([C@@H](C)CO)C(=O)Cc2cc(NC(=O)Nc3ccc(C(F)(F)F)cc3)ccc2O[C@H]1CN(C)C(=O)Nc1ccc(C(F)(F)F)cc1
AC50 [17]: > 70 µM (inactive) | AC50 (Paired box protein Pax-8): 8.87 µM (active)

Oc1ccc(/C=N/n2c(-c3ccco3)cs/c2=N\c2cccnc2)c(O)c1
IC50 [2]: 43.3 µM (active) | CC50 [3]: 100 µM (active)

— ChEMBL document CHEMBL1201862, “PubChem BioAssay data set” (2004)
